The values below come from article PMC10174618, “Monoterpenoid aryl hydrocarbon receptor allosteric antagonists protect against ultraviolet skin damage in female mice” (Nature Communications, 2023).

Holding throughout (test): biochemical
What all share (design): KINOMEscan scanMAX active site-directed competition binding assay, percent of control, 468 kinases
What all share (conditions): competition binding, percent of control

For one assay, the target named is LATS2 (Homo sapiens, UniProt Q9NRM7). The procedure, abridged:
(§1)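 Single-concentration screen (100 μM S-carvone) in a competition binding panel of 468 human kinases (KINOMEscan scanMAX); results given as percent of control, hit cutoff 35%.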

For assay [1], the target named is T1, ABL1(Y253F)-phosphorylated (Homo sapiens, UniProt P00519, Y253F).
T1 construct: phosphorylated
The procedure, abridged: as §1

The target of the next assay is EGFR(G719C) (Homo sapiens, UniProt P00533, G719C). The procedure, abridged:
as §1

For another assay, the target named is PRKD1 (Homo sapiens, UniProt Q15139). The procedure, abridged: as §1
Another assay has as its target T2, ASK1 (Homo sapiens, UniProt Q99683).
T2 construct: gene MAP3K5
The procedure, abridged: as §1

The target in a further assay is EPHB6 (Homo sapiens, UniProt O15197). The procedure, abridged: as §1
For a further assay, the target named is RIOK2 (Homo sapiens, UniProt Q9BVS4). The procedure, abridged: as §1
For the next assay, the target named is MAP3K1 (Homo sapiens, UniProt Q13233). The procedure, abridged:
as §1

The target in a further assay is BMX (Homo sapiens, UniProt P51813). The procedure, abridged: as §1
In another assay the target is DAPK3 (Homo sapiens, UniProt O43293). The procedure, abridged: as §1
The next assay addresses CSNK1G1 (Homo sapiens, UniProt Q9HCP0). The procedure, abridged:
as §1

A further assay addresses T3, CTK (Homo sapiens, UniProt P42679).
T3 construct: gene MATK
The procedure, abridged:
as §1

In a further assay the target is EGFR(L858R) (Homo sapiens, UniProt P00533, L858R). The procedure, abridged:
as §1

The next assay concerns the target PRKG1 (Homo sapiens, UniProt Q13976). The procedure, abridged: as §1
A further assay has as its target T4, ERK2 (Homo sapiens, UniProt P28482).
T4 construct: gene MAPK1
The procedure, abridged:
as §1

The target of a further assay is CDK4 (Homo sapiens, UniProt P11802). The procedure, abridged: as §1
Another assay addresses PIK3CB (Homo sapiens, UniProt P42338). The procedure, abridged:
as §1

A further assay deals with CAMK1D (Homo sapiens, UniProt Q8IU85). The procedure, abridged:
as §1

The target of the next assay is ZAP70 (Homo sapiens, UniProt P43403). The procedure, abridged: as §1
The target of a further assay is T5, ERK8 (Homo sapiens, UniProt Q8TD08).
T5 construct: gene MAPK15
The procedure, abridged: as §1

For another assay, the target named is MAP3K4 (Homo sapiens, UniProt Q9Y6R4). The procedure, abridged: as §1

SMILES strings stand for the structures.

Chain of EPHB6 (O15197 whole entry): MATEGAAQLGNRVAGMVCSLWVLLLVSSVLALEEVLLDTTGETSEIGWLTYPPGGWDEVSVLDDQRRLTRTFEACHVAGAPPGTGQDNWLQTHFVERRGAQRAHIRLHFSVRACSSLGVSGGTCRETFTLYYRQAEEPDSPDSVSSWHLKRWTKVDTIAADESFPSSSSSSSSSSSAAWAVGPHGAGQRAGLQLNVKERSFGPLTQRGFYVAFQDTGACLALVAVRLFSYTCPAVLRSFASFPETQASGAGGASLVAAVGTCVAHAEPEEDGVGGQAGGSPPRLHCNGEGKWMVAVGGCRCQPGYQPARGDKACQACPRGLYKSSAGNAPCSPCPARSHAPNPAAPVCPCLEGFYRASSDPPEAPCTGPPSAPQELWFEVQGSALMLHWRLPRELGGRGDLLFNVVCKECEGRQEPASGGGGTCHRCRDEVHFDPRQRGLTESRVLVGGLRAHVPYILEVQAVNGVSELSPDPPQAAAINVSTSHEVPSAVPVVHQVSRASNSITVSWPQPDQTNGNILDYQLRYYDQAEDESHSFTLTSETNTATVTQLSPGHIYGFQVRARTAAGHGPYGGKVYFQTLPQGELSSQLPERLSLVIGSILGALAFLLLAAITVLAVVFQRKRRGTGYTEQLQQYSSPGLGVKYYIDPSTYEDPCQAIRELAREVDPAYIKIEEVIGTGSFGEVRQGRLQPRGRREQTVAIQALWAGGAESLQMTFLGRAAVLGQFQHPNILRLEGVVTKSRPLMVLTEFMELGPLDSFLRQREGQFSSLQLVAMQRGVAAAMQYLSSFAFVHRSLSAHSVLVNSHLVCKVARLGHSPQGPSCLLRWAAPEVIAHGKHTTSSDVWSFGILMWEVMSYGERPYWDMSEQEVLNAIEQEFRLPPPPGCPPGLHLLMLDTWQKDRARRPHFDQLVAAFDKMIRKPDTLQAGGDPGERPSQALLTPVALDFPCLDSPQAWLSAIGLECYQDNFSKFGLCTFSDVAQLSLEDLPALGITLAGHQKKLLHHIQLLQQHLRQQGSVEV
T3 sequence (P42679 whole entry): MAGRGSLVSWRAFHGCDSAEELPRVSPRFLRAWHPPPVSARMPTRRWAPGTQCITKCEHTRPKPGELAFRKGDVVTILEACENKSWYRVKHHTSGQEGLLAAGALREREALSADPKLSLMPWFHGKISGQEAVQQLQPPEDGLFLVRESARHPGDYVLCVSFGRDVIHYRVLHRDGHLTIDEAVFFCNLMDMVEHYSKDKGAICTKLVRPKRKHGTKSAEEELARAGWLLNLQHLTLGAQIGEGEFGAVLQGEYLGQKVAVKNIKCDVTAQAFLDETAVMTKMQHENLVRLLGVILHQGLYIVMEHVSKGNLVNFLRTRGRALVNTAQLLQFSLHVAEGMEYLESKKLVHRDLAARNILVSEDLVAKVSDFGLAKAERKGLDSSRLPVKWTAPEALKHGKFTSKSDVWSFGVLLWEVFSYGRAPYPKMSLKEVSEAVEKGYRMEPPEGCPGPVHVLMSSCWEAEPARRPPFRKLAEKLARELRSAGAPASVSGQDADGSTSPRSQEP
Chain of BMX (P51813 whole entry): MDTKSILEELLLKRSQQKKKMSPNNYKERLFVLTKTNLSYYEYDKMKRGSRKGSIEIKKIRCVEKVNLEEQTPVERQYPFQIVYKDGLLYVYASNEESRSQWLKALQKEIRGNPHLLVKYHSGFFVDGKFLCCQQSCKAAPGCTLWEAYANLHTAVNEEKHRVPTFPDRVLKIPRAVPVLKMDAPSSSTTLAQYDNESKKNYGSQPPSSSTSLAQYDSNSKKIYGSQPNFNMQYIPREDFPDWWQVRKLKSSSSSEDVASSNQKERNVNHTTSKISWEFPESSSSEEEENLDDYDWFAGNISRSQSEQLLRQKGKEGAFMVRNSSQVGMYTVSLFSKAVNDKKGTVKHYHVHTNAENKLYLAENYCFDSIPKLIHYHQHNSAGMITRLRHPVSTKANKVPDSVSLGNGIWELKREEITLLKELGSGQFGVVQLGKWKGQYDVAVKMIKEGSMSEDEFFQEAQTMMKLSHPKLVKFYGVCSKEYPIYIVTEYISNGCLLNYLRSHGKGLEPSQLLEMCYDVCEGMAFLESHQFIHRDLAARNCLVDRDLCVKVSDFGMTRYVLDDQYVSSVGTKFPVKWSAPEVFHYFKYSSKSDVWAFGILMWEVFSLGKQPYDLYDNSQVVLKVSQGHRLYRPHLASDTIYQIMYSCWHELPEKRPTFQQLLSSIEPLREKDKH
Chain of EGFR(G719C) (P00533 whole entry G719C): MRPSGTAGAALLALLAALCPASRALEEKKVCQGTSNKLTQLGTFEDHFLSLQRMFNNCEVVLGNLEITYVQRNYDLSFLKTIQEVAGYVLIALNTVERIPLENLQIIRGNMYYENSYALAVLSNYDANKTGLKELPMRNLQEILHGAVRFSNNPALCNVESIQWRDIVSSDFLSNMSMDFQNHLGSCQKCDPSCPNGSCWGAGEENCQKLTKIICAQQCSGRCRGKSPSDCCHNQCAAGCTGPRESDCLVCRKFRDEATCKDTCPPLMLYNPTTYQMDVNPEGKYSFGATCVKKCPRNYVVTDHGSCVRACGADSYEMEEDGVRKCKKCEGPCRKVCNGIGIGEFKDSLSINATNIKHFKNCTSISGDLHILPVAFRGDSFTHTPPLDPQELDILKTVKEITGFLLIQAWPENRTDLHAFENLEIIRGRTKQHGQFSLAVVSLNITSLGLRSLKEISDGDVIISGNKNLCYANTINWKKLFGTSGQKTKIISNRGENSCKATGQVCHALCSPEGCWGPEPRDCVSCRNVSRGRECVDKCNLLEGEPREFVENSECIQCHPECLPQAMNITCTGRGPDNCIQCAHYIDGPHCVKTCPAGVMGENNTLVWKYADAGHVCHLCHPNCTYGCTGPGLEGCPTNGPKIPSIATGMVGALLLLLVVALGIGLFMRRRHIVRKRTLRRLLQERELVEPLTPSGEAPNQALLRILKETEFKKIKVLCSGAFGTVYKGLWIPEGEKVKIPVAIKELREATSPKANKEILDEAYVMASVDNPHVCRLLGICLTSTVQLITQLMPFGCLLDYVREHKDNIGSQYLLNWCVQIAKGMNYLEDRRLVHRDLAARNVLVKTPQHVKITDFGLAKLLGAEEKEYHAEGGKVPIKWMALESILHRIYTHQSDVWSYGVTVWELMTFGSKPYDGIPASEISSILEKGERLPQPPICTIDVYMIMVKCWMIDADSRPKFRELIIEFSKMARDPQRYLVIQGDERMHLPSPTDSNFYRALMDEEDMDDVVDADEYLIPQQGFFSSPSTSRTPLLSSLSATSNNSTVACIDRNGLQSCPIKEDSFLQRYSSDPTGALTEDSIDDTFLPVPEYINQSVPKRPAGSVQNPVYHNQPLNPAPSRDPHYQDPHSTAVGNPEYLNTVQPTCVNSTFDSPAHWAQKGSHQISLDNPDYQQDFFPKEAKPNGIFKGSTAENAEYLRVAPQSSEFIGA
Chain of ZAP70 (P43403 whole entry): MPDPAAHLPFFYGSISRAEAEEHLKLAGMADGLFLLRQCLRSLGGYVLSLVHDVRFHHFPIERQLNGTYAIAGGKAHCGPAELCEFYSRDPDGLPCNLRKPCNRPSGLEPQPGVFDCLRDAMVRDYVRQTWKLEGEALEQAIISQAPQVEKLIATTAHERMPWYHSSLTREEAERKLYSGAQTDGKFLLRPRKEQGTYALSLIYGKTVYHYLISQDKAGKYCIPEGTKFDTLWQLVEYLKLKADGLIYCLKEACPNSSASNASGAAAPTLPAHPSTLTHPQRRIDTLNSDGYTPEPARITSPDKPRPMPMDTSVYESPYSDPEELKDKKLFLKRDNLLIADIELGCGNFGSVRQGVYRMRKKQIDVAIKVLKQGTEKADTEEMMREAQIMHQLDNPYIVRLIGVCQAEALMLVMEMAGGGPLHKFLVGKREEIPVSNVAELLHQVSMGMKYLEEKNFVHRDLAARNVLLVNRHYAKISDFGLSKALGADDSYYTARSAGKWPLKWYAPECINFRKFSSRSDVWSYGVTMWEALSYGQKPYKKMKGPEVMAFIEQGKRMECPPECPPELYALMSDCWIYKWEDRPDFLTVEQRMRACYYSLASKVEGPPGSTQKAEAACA
Chain of PIK3CB (P42338 whole entry): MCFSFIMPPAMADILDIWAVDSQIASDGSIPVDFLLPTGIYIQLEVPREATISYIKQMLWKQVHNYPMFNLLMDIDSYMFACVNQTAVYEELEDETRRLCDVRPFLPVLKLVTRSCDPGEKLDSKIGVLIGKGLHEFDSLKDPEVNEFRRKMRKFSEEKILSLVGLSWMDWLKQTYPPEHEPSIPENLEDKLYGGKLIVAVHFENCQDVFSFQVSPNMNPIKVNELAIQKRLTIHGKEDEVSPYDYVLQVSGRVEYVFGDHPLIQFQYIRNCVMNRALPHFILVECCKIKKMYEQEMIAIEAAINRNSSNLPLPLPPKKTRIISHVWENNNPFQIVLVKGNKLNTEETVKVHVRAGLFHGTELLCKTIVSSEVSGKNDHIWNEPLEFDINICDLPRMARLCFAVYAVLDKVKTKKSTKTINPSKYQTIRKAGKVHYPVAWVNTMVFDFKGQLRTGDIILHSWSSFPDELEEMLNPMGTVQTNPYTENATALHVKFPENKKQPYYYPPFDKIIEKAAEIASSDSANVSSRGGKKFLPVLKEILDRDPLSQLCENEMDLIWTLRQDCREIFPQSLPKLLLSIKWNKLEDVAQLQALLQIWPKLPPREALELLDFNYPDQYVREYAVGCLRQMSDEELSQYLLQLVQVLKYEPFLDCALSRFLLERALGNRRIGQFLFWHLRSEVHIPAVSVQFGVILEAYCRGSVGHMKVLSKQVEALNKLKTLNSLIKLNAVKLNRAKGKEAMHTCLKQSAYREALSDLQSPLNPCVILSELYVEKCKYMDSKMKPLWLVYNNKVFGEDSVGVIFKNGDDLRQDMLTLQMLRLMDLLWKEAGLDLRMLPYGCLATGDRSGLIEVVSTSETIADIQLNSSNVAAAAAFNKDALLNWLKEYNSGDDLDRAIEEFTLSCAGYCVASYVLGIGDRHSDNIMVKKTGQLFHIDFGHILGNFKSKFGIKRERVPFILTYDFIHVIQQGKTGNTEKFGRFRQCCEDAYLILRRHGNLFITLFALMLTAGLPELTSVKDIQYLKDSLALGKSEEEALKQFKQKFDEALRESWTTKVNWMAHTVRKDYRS

For `C=C(C)[C@H]1CC=C(C)C(=O)C1` [S-carvone], the remaining binding at 100 µM on LATS2 is 45%; in assay [1], 67%; on EGFR(G719C), 74%; on PRKD1 it was 61%; on ASK1 it was 81%; at EPHB6, 51%. The remaining binding at 100 µM at RIOK2 was determined as 90%; on MAP3K1, 60%; on BMX, 67%; on DAPK3, 84%; on CSNK1G1, 100%; on CTK, 75%. Besides, the remaining binding at 100 µM stood at 85% at EGFR(L858R); 84% at PRKG1; 76% at ERK2; 71% at CDK4; 88% on PIK3CB; 83% on CAMK1D. Moreover, the remaining binding at 100 µM on ZAP70 is 84%; on ERK8, 91%; at MAP3K4 it was 79%.
